The record followed here is patent publication US8114880B2, “Piperidine or piperazine substituted tetrahydro-naphthalene-1-carboxylic acid MTP inhibiting compounds” (Janssen Pharmaceutica N.V., priority 2006, dated 2012).

Usually IC50 stands for the point on the concentration scale where inhibition reaches its midpoint.

Chain of MTP (P55157 19-894, species assumed): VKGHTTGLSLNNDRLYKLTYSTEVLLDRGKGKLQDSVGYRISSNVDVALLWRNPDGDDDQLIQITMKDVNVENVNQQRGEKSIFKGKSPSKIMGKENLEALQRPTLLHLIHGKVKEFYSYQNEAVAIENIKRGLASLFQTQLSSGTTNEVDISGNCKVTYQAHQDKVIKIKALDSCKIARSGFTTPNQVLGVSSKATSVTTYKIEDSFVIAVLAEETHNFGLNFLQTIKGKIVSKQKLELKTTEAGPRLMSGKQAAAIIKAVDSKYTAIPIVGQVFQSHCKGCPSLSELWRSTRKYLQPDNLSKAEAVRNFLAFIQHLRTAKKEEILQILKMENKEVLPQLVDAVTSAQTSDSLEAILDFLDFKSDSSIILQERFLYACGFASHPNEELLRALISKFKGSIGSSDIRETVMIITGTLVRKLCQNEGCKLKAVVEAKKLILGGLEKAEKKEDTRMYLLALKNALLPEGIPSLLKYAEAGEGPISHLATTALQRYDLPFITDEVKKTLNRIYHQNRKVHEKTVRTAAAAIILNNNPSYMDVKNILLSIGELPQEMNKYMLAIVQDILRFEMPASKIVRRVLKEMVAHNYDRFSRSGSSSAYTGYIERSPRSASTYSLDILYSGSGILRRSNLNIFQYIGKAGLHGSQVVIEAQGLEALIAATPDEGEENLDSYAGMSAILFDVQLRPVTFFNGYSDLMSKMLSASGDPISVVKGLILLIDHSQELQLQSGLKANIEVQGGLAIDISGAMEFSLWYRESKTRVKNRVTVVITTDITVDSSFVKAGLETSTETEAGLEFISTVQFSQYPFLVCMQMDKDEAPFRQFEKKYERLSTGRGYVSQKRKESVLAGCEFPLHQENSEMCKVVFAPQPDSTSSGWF
Chain of MTP (P07237 18-508 partner, species assumed): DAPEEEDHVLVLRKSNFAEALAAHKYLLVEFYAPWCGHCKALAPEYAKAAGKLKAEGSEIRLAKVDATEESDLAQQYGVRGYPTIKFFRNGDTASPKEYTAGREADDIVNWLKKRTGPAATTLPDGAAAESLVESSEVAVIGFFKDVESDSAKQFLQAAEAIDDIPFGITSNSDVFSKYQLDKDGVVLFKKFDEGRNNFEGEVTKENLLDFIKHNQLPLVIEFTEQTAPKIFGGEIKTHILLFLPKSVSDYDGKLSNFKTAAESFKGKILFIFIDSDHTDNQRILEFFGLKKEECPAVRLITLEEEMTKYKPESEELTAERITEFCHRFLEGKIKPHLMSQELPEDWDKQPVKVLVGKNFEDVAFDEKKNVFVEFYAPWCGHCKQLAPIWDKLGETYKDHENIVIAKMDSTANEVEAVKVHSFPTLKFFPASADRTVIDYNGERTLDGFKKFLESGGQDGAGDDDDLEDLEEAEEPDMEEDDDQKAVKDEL

This test has as its target MTP (Homo sapiens, UniProt P55157). Description: MTP assay (triglyceride transfer from donor to acceptor vesicles). The note with it: MTP activity, percent triglyceride transfer from donor to acceptor vesicles, 37° C. Format: biochemical. The protocol:
MTP activity was measured using an assay similar to one described by J. R. Wetterau and D. B. Zilversmit in Chemistry and Physics of Lipids, 38, 205-222 (1985). To prepare the donor and acceptor vesicles, the appropriate lipids in chloroform were put into a glass test tube and dried under a stream of nitrogen. A buffer containing 15 mM Tris-HCl pH 7.5, 1 mM EDTA, 40 mM NaCl, 0.02% NaN3 (assay buffer) was added to the dried lipid. The mixture was vortexed briefly and the lipids were then allowed to hydrate for 20 minutes on ice. Vesicles were then prepared by bath sonication (Branson 2200) at room temperature for maximum 15 minutes. Butylated hydroxytoluene was included in all vesicle preparations at a concentration of 0.1%. The lipid transfer assay mixture contained donor vesicles (40 nmol phosphatidylcholine, 7.5 mol % of cardiolipin and 0.25 mol % glycerol tri [1-^14C]-oleate), acceptor vesicles (240 nmol phosphatidylcholine) and 5 mg BSA in a total volume of 675 μl in a 1.5 ml microcentrifuge tube. Test compounds were added dissolved in DMSO (0.13% final concentration). After 5 minutes of pre-incubation at 37° C., the reaction was started by the addition of MTP in 100 μl dialysis buffer. The reaction was stopped by the addition of 400 μl DEAE-52 cellulose pre-equilibrated in 15 mM Tris-HCl pH 7.5, 1 mM EDTA, 0.02% NaN3 (1:1, vol/vol). The mixture was agitated for 4 minutes and centrifuged for 2 minutes at maximum speed in an Eppendorf centrifuge (4° C.) to pellet the DEAE-52-bound donor vesicles. An aliquot of the supernatant containing the acceptor liposomes was counted and the [^14C]-counts were used to calculate the percent triglyceride transfer from donor to acceptor vesicles.
Compound `COc1ccccc1C(=O)NC1CCN(C(=O)[C@H]2CC[C@@](C(=O)N[C@@H](Cc3ccccc3)C(=O)O)(c3ccccc3)c3ccccc32)CC1` [Co. No. 125] had a 50% inhibitory concentration (IC50) of 8610 nM. The result for `COc1ccccc1C(=O)NC1CCN(C(=O)[C@H]2CC[C@@](C(=O)N[C@@H](Cc3ccc(O)cc3)C(=O)O)(c3ccccc3)c3ccccc32)CC1` [Co. No. 126] reads 6190 nM. For the compound `COc1ccccc1C(=O)NC1CCN(C(=O)[C@H]2CC[C@@](C(=O)N[C@@H](Cc3c[nH]c4ccccc34)C(=O)O)(c3ccccc3)c3ccccc32)CC1` [Co. No. 127], the IC50 was more than 10000 nM. `COc1ccccc1C(=O)NC1CCN(C(=O)[C@H]2CC[C@@](C(=O)N[C@@H](CC(N)=O)C(=O)O)(c3ccccc3)c3ccccc32)CC1` [Co. No. 128] showed a half-inhibitory concentration (IC50) of more than 10000 nM. `COC(=O)[C@H](CCCCNC(C)=O)NC(=O)[C@@]1(c2ccccc2)CC[C@H](C(=O)N2CCC(NC(=O)c3ccccc3OC)CC2)c2ccccc21` [Co. No. 130]: half-maximal inhibition (IC50) required 262 nM. With `CCOC(=O)[C@H](CCCCNC(C)=O)NC(=O)[C@@]1(c2ccccc2)CC[C@H](C(=O)N2CCC(NC(=O)c3ccccc3OC)CC2)c2ccccc21` [Co. No. 131] the figure was 45.6 nM; with `COc1ccccc1C(=O)NC1CCN(C(=O)[C@H]2CC[C@@](C(=O)N[C@@H](CCCCN)C(=O)O)(c3ccccc3)c3ccccc32)CC1` [Co. No. 132], 355 nM. With `CCOC(=O)CNC(=O)[C@@]1(c2ccccc2)CC[C@H](C(=O)N2CCC(NC(=O)c3cccn(C)c3=O)CC2)c2ccccc21` [Co. No. 133] the figure was 796 nM.

Consider `CCOC(=O)[C@H](C)NC(=O)[C@@]1(c2ccccc2)CC[C@H](C(=O)N2CCC(NC(=O)c3cccn(C)c3=O)CC2)c2ccccc21` [Co. No. 135], for which the midpoint of inhibition, the IC50, lay at 1340 nM. The result for `CCOC(=O)[C@@H](C)NC(=O)[C@@]1(c2ccccc2)CC[C@H](C(=O)N2CCC(NC(=O)c3cccn(C)c3=O)CC2)c2ccccc21` [Co. No. 136] reads 1090 nM; that for `CCOC(=O)CN(C)C(=O)[C@@]1(c2ccccc2)CC[C@H](C(=O)N2CCC(NC(=O)c3cccn(C)c3=O)CC2)c2ccccc21` [Co. No. 137], 474 nM; that for `CCOC(=O)[C@@H](NC(=O)[C@@]1(c2ccccc2)CC[C@H](C(=O)N2CCC(NC(=O)c3cccn(C)c3=O)CC2)c2ccccc21)C(C)C` [Co. No. 139], 826 nM. The result for `CCOC(=O)[C@H](NC(=O)[C@@]1(c2ccccc2)CC[C@H](C(=O)N2CCC(NC(=O)c3cccn(C)c3=O)CC2)c2ccccc21)C(C)C` [Co. No. 140] reads 1090 nM; that for `CCOC(=O)[C@H](CC(C)C)NC(=O)[C@@]1(c2ccccc2)CC[C@H](C(=O)N2CCC(NC(=O)c3cccn(C)c3=O)CC2)c2ccccc21` [Co. No. 141], 1860 nM; that for `CCOC(=O)[C@H](CO)NC(=O)[C@@]1(c2ccccc2)CC[C@H](C(=O)N2CCC(NC(=O)c3cccn(C)c3=O)CC2)c2ccccc21` [Co. No. 142], more than 10000 nM. On to `CCOC(=O)C[C@H](NC(=O)[C@@]1(c2ccccc2)CC[C@H](C(=O)N2CCC(NC(=O)c3cccn(C)c3=O)CC2)c2ccccc21)C(=O)OCC` [Co. No. 143], for which inhibition was half-maximal at 1920 nM (IC50). With `CCOC(=O)C1CCCCN1C(=O)[C@@]1(c2ccccc2)CC[C@H](C(=O)N2CCC(NC(=O)c3cccn(C)c3=O)CC2)c2ccccc21` (some centres unmarked) [Co. No. 144] the figure was 3830 nM; with `COC(=O)CC[C@H](NC(=O)[C@@]1(c2ccccc2)CC[C@H](C(=O)N2CCC(NC(=O)c3cccn(C)c3=O)CC2)c2ccccc21)C(=O)OC` [Co. No. 145], 5380 nM.

In turn, `CCOC(=O)CC[C@H](NC(=O)[C@@]1(c2ccccc2)CC[C@H](C(=O)N2CCC(NC(=O)c3cccn(C)c3=O)CC2)c2ccccc21)C(=O)OCC` [Co. No. 146] had a half-maximal inhibitory concentration (IC50) of 776 nM. The result for `CCOC(=O)[C@@H]1CCCN1C(=O)[C@@]1(c2ccccc2)CC[C@H](C(=O)N2CCC(NC(=O)c3cccn(C)c3=O)CC2)c2ccccc21` [Co. No. 149] reads more than 10000 nM.
